Test results: patent publication US10807970B2 (priority 2016, dated 2020)
pKi: −log10 of the molar value. Where two headings read alike, the source gives them in different places.

Target: human σ1 receptor (Homo sapiens, UniProt Q99720)
Test: Human σ1 receptor radioligand assay ([3H](+)-pentazocine, transfected HEK-293 membranes)
Assay type: binding
Parameters: μ and σ1 dual binding: key to the marks not given beside the values
Conditions: one class symbol for both Ki-σ1 (human σ1 receptor, A1) and Ki-μ (human μ-opioid receptor, A2)
Summary of the method: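 Membranes from HEK-293 cells transfected with human σ1 receptor (7 μg) incubated with 5 nM [3H](+)-pentazocine in 50 mM Tris-HCl pH 8, 120 min at 37° C. Non-specific binding defined with 10 μM haloperidol. Bound radioligand separated by filtration, washed with ice-cold 10 mM Tris-HCl pH 7.4, and counted by scintillation.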

[1] = read-out: μ and σ1 dual binding

human σ1 receptor, sequence (Q99720 whole entry): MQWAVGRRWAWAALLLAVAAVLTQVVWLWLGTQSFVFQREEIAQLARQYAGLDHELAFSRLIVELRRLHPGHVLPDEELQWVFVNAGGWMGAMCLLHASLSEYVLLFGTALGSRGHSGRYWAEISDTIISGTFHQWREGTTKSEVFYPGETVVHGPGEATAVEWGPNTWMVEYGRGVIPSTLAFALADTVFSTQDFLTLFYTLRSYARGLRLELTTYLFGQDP

Row | pKi [1] | SMILES | pKi (μ and σ1 dual binding) | further results
1 |  | CC1(C)CC(C(=O)c2ccccn2)(N2CC3CN(Cc4ccccc4)CC3C2)CCO1 (stereo not shown) [Example 18, (4-(5-benzylhexahydropyrrolo[3,4-c]pyrrol-2(1H)-yl)-2,2-dimethyltetrahydro-2H-pyran-4-yl)(pyridin-2-yl)methanone] | > 6.30 | 
2 |  | CC(C)C1(N2CCN(CCc3ccccc3F)CC2)CCOC(C)(C)C1 (stereo not shown) [Example 89, 1-(2-fluorophenethyl)-4-(4-isopropyl-2,2-dimethyltetrahydro-2H-pyran-4-yl)piperazine] | > 6.30 | 
3 |  | CC(C)OCCN1CCCN(C2(C(=O)c3ccccn3)CCOC(C)(C)C2)CC1 (stereo not shown) [Example 88, (4-(4-(2-isopropoxyethyl)-1,4-diazepan-1-yl)-2,2-dimethyltetrahydro-2H-pyran-4-yl)(pyridin-2-yl)methanone] | > 6.30 | 
4 |  | O=C(c1ccccn1)C1(N2CCN(Cc3ccccc3)CC2)CCOC1 (stereo not shown) [Example 20, (3-(4-benzylpiperazin-1-yl)tetrahydrofuran-3-yl)(pyridin-2-yl)methanone] |  | μ and σ1 dual binding: ++
5 |  | CC1(C)CC(C(=O)c2ccccn2)(C2CCN(Cc3ccc(F)cc3)CC2)CCO1 (stereo not shown) [Example 109, (4-(1-(4-fluorobenzyl)piperidin-4-yl)-2,2-dimethyltetrahydro-2H-pyran-4-yl)(pyridin-2-yl)methanone] |  | μ and σ1 dual binding: ++
6 | < 6.30 | C=CC1(N2CCN(CCc3ccccc3)CC2)CCOC(C)(C)C1 (stereo not shown) [Example 45, 1-(2,2-dimethyl-4-vinyltetrahydro-2H-pyran-4-yl)-4-phenethylpiperazine] |  | 
7 |  | CC1(C)CC(C(=O)c2ccccn2)(N2CCN(CCc3ccccc3)CC2)CCO1 (stereo not shown) [Example 54, (2,2-dimethyl-4-(4-phenethylpiperazin-1-yl)tetrahydro-2H-pyran-4-yl)(pyridin-2-yl)methanone] | > 6.30 | 
8 |  | CN(Cc1ccccc1)C1CN(C2(C(=O)c3ccccn3)CCOC(C)(C)C2)C1 (stereo not shown) [Example 19, (4-(3-(benzyl(methyl)amino)azetidin-1-yl)-2,2-dimethyltetrahydro-2H-pyran-4-yl)(pyridin-2-yl)methanone] |  | μ and σ1 dual binding: ++
9 |  | C[C@H]1C[C@](C(=O)c2ccccn2)(C2CCN(Cc3ccccc3)CC2)CCO1 [Example 153] | > 6.30 | 
10 |  | CC(c1ccccc1)N1CCN(C2(C(=O)c3ccccn3)CCOC(C)(C)C2)CC1 (stereo not shown) [Example 62, (2,2-dimethyl-4-(4-(1-phenylethyl)piperazin-1-yl)tetrahydro-2H-pyran-4-yl)(pyridin-2-yl)methanone] | > 6.30 | 
11 |  | CC(C)CCN1CCN(C2(C)CCOC(C)(C)C2)CC1 (stereo not shown) [Example 79, 1-isopentyl-4-(2,2,4-trimethyltetrahydro-2H-pyran-4-yl)piperazine] |  | μ and σ1 dual binding: ++
12 |  | CC(C)CN1CCN(C2(C(=O)c3ccccn3)CCOC3(CCCC3)C2)CC1 (stereo not shown) [Example 51, (9-(4-isobutylpiperazin-1-yl)-6-oxaspiro[4.5]decan-9-yl)(pyridin-2-yl)methanone] | > 6.30 | 
13 | < 6.30 | CC1(C)CC(C(=O)c2ccccn2)(N2CCN(CCC(F)(F)F)CC2)CCO1 (stereo not shown) [Example 127, (2,2-dimethyl-4-(4-(3,3,3-trifluoropropyl)piperazin-1-yl)tetrahydro-2H-pyran-4-yl)(pyridin-2-yl)methanone] |  | 
14 | < 6.30 | CC(C)OCCN1CCN([C@]2(C(=O)c3ccccn3)CCO[C@H](C)C2)CC1 [Example 189, ((2R,4R)-4-(4-(2-isopropoxyethyl)piperazin-1-yl)-2-methyltetrahydro-2H-pyran-4-yl)(pyridin-2-yl)methanone] |  | 

Row | SMILES | pKi [1] | pKi (μ and σ1 dual binding) | further results
15 | C[C@H]1C[C@@](C(=O)c2ccccn2)(N2CCN(CCc3ccccc3)CC2)CCO1 [Example 241, ((2S,4S)-2-methyl-4-(4-phenethylpiperazin-1-yl)tetrahydro-2H-pyran-4-yl)(pyridin-2-yl)methanone] | > 6.30 |  | 
16 | CC(C)CCN1CCN([C@]2(C(=O)c3ccccn3)CCO[C@@H](C)C2)CC1 [Example 169] | > 6.30 |  | 
